# From US20070248672A1, “Indole and Azaindole Derivatives with Antitumor Action” (priority 2004, published 2007)
# Where a name gives a salt, the structure may show the parent alone. Read-outs that look alike come from different tables or passages of the source.
# How the values were obtained:
# [1] = biological target: Vacuolar ATPase in human osteoclastoma (hOc) (Homo sapiens, UniProt P27449+Q13488); assay: Vacuolar ATPase inhibition in human osteoclastoma (hOc) microsomal fraction; format: biochemical; details: 30 min, 37° C.
# Sequence of Vacuolar ATPase in human osteoclastoma (hOc) (P27449 whole entry, looked up): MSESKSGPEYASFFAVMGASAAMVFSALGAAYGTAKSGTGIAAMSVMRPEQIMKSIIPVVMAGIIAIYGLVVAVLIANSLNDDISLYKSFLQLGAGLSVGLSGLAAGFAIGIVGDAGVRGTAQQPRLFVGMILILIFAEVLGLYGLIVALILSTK
# Sequence of Vacuolar ATPase in human osteoclastoma (hOc) (Q13488 whole entry, looked up): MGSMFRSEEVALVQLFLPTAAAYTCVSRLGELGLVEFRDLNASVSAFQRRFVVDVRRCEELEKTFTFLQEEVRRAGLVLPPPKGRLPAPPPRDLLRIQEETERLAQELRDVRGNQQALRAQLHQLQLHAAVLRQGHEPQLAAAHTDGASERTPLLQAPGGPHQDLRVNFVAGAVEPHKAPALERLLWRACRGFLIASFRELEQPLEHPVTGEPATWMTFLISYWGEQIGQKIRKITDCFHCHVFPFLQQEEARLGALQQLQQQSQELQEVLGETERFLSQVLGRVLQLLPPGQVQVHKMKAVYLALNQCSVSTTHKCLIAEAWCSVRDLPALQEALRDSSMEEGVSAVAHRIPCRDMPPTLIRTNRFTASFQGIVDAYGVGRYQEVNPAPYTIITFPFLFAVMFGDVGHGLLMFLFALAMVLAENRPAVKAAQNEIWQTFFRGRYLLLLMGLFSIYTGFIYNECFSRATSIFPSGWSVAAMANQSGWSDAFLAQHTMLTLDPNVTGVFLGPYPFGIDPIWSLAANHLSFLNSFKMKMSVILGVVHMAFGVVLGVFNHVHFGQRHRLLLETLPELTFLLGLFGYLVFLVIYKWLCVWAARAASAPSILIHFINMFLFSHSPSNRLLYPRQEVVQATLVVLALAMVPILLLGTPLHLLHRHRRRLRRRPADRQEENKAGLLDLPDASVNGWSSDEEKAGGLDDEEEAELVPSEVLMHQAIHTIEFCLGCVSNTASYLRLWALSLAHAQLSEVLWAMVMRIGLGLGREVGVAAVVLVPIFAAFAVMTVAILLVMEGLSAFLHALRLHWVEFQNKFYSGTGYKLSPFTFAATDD
# Method: 1.1 Determination of Vacuolar ATpase Inhibition in Human Osteoclastoma (hOc)
# Osteoclast-like giant cells isolated from human osteoclastoma are homogenized using a glass-teflon homogeniser (1000 rpm) and the material is centrifuged for 20 minutes at 6000 g. The resultant pellet is resuspended and centrifuged at 100000 g for 60 minutes to sediment the microsomal fraction. The resultant pellet is resuspended in medium at pH 7.4 and stored under liquid nitrogen.
# (§1) Inhibition of bafilomycin sensitive ATPase activity is assayed by measuring the release of inorganic phosphate during 30 minutes of incubation, at 37° C., of the human osteoclastoma microsomal fraction in 96-well plates. The reaction medium contains 1 mM ATP, 10 mM Hepes-Tris buffer pH 8, 50 mM KCl, 5 μM valinomycin, 5 μM nigericin, 1 mM CDTA-Tris, 100 μM ammonium molybdate, 0.2 M sucrose and the microsomal fraction (20 μg protein/ml). The reaction is initiated by adding MgSO4 and terminated, after 30 minutes, by adding 4 volumes of the reagent malachite green, prepared according to Chan K., Anal. Biochem. 157, 375-380, 1986.
# HT29 cells [2] = assay: Antiproliferative activity, 72 h treatment, SRB assay, HT29; format: cell-based, human
# Method: (§2) HT29 and HT29/Mit (line obtained by prolonged exposure to mitoxantrone, and characterised by overexpression of BCRP, which confers cross resistance to topotecan, irinotecan and to its metabolite SN38): maintained in McCoy 5A medium+10% FCS.
# (§3) 2.2 Scheme of the Antiproliferative Activity Experiment (Treatment Time: 72 Hours)
# (§4) The cells (HT29 and HT29/Mit: 40,000 cells/ml, LoVo, LoVo/Dx and HCT116: 50,000 cells/ml) are seeded in 100 μl of the respective culture media in 96-well plates. 24 hours after seeding, an aliquot (10 μl) of drug at the various concentrations is added. In the samples in which the effect of the combination of two compounds is to be tested the inhibitor is added immediately before the cytotoxic. For each dose or combination of doses/drugs the effect of the treatment is determined in 4-8 replicates.
# (§5) After 72 hours of treatment the antiproliferative effect is evaluated using the sulforhodamine B (SRB) assay: the cells are fixed by adding 25 μl of 50% TCA to each well and left for 1 hour at 4° C. After washing them with water and allowing them to dry, 100 μl of 0.4% SRB in 1% acetic acid are added and left for 30 minutes at room temperature. After 4 washes in 1% acetic acid, they are left to dry then the dye fixed by the proteins is dissolved under basic conditions with 100 μl 10 mM cold Tris and the solution is read using a spectrophotometer at 550 nm.
# (§6) Percentage cell growth is calculated as the optical density of treated samples compared to the optical density of controls (untreated cells).
# HT29/Mit cells [3] = assay: Antiproliferative activity, 72 h treatment, SRB assay, HT29/Mit resistant line; format: cell-based, human
# Method: as §2, §3, §4, §5, §6
# HepG2 cells = assay: Antiproliferative activity, 48 h treatment, ATPlite luminescence assay, HepG2; format: cell-based, human; details: HepG2, 48 h treatment, read-out: Antiproliferative activity (IC50 ± S.D.) HepG2 48 h treatment
# Method: HepG2: maintained in EMEM medium+10% FCS.
# 2.3 Scheme of the Antiproliferative Activity Experiment (Treatment Time: 48 Hours)
# The cells (concentration: 30,000 cells/ml) are seeded in 90 μl of the respective culture media in 96-well plates. 24 hours after seeding, an aliquot (10 μl) of the drug at the various concentrations is added (for each concentration there are 3 replicates). After 48 hours of treatment the antiproliferative effect is evaluated with a luminescence assay (Perkin Elmer Life Sciences ATPlite):
# 50 μl of a lysis solution are added to each well followed by an equal volume of a solution containing luciferase and D-luciferin. The ATP present in all the metabolically active cells brings about the transformation reaction of D-luciferin, catalysed by luciferase, to produce a luminescent signal as described in the following scheme: ATP+D-luciferin+O2→Oxyluciferin+AMP+PP1+CO2+Light
# The luminescence produced (expressed in counts per second, CPS) is measured by means of a microplate scintillation analyzer (Perkin Elmer Life Sciences Top Count).
# Percentage inhibition of luminescence in the treated cells compared to the control is calculated; concentration-response curves are then analysed using Grafit v.5.0.
# [4] = biological target: Vacuolar ATPase in bovine chromaffin cells membranes (BCG) (Bos taurus, UniProt P23956+Q29466); assay: Vacuolar ATPase inhibition in bovine chromaffin cells membranes (BCG); format: biochemical; details: read-out: ATPase activity (IC50) BCG; bovine chromaffin cell membranes
# Sequence of Vacuolar ATPase in bovine chromaffin cells membranes (BCG) (P23956 whole entry, looked up): as the sequence (P27449 whole entry, looked up) above, with S4A, S6N, Q51M, D83G, K88R counted along it
# Sequence of Vacuolar ATPase in bovine chromaffin cells membranes (BCG) (Q29466 whole entry, looked up): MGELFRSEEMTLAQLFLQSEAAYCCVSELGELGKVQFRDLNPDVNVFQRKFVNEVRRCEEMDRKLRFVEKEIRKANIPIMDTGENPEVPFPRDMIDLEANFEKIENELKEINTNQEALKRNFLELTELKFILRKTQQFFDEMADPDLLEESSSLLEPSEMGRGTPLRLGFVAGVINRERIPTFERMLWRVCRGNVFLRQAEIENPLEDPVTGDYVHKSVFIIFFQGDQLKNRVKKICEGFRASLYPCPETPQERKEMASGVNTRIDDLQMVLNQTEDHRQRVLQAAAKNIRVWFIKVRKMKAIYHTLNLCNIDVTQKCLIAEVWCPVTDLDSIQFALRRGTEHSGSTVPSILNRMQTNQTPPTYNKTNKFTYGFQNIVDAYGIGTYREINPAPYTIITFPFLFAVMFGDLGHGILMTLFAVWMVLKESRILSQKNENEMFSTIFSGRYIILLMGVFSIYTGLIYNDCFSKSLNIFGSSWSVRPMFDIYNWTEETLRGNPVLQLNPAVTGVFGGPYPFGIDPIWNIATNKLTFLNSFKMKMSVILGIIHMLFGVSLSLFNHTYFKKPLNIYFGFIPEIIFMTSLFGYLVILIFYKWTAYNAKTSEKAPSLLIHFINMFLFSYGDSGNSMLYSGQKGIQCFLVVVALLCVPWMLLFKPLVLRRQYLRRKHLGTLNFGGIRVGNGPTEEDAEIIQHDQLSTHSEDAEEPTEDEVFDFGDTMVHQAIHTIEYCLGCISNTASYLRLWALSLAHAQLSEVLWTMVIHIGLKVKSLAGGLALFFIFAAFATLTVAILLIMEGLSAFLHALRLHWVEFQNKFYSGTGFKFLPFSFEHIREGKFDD
# Method: as §1
# 1.2 Determination of Vacuolar ATpase Inhibition in the Bovine Chromaffin Cells Membranes (BCG)
# About 20 adrenal glands (Cidon S., J. Biol. Chem. 258, 2892-2898, 1983) are removed from healthy bovines; the medulla is quickly separated from the cortex, which is discarded. The medulla is homogenised at 4° C. with a suitable medium at pH 7.5, then filtered. The remaining solid material is further homogenised, filtered and recombined with the preceding filtrate, resuspended and centrifuged at 1000 g for 15 minutes; the supernatant obtained is centrifuged at 10000 g for 20 minutes. The resultant pellet is resuspended and stratified through a sucrose gradient formed of a lower part of 15 ml 1.5 M sucrose and an upper part of 10 ml 1.2 M sucrose. After overnight centrifugation at 4° C. with a SW28 rotor at 20000 rpm, the chromaffiln cells sediment into a pellet. This latter is resuspended, centrifuged at 3000 g for 10 minutes, and the supernatant obtained is centrifuged at 200000 g for 60 minutes. The pellet is then resuspended in 4 ml of a suitable medium containing 0.2 μg/ml pepstatin A and 0.4 μg/ml leupeptin and stored under liquid nitrogen.
# The method for ATPase inhibition assay is the same as that followed for the osteoclastoma.
# HT29 cells [5] = assay: Co-treatment with topotecan, HT29 cells (Combination Index according to Kern); format: cell-based, human; details: HT29 cells
# Method: as §4, §5, §6
# (§7) The Combination Index (C.I.) was determined according to Kern's method, 1988 (who continued from Drewinko B, 1976) (Kem D. H., Cancer Res. 48, 117-121, 1988; Drewinko B., Cancer Biochem. Biophys. 1, 187-195, 1976) by means of the following formula: […], where SFa and SFb are the fractions of cells surviving to treatment with compound a and b, respectively; SFab is the fraction surviving to the combination of compounds a and b. If the result is =1, the interaction between the two compounds is additive; if it is >1, the interaction between the two compounds is synergistic; if it is <1, the interaction between the two compounds is antagonistic.
# HT29/Mit cells [6] = assay: Co-treatment with topotecan, HT29/Mit resistant cells (Combination Index according to Kern); format: cell-based, human; details: HT29/Mit cells
# Method: as §4, §5, §6, §7
# [7] = tested on: HT29/Mit human colon carcinoma xenografts; assay: HT29/Mit human colon carcinoma xenograft, antitumor activity; format: in vivo, athymic Swiss nude mice
# Excerpt: 1.1 Model of HT29/Mit human colon carcinoma xenografts-Antitumor activity Female athymic Swiss nude mice (8-10 weeks old) (Charles River, Calco, Italy) were used for the experiments. The animals were maintained at constant temperature and humidity, and were allowed to eat and drink freely. The experimental protocol was approved by the Ethics Committee for Animal Experimentation of the Istituto Nazionale Tumori of Milan. The antitumour effectiveness of the compounds of the invention under discussion was tested on athymic mouse models implanted with HT29 and/or HT29/Mit tumour cells: this latter variety is highly resistant to topotecan treatment. The tumour cells were implanted in vivo via subcutaneous injection of 10^7 cells taken from in vitro cultures. Randomized groups of five mice with bilateral subcutaneous tumours were used for the experiment. Topotecan or other known antitumour agents (dissolved in distilled water or an appropriate solvent) and the compounds of the invention (dissolved in Cremophor EL: ethanol: saline solution in the proportions 5:5:90, or in an appropriate solvent) were administered orally from the third day, alone or in combination, in agreement with a treatment scheme selected in an appropriate manner depending on the type of compound to be studied. The weight (or volume) of the tumour in treated mice compared to controls is represented graphically on the y-axis against time (x-axis).
# [8] = HT-29, 72 h treatment, read-out: Antiproliferative activity (IC50 ± S.D.) HT-29 72 h treatment
# [9] = Homo sapiens, HT-29, 72 h treatment, read-out: Antiproliferative activity (IC50 ± S.D.) HT-29 72 h treatment
# [10] = Homo sapiens, HT-29/Mit resistant line, 72 h treatment, read-out: Antiproliferative activity (IC50 ± S.D.) HT-29/Mit
# [11] = Homo sapiens, HT-29, HT29, after 72 hours of treatment, range stated for the group, read-out: IC50 values in the sensitive line
# [12] = Homo sapiens, HT-29, HT29/Mit, after 72 hours of treatment, range stated for the group, read-out: IC50 values in the resistant line
Structure (SMILES),IC50 (HT29 cells [2]; [9]) [nM],IC50 (HT29/Mit cells [3]; [10]) [nM],IC50 [4] [nM],IC50 (HT29 cells [2]; [11]) [nM],IC50 (HT29/Mit cells [3]; [12]) [nM],also measured
"CO/C1=C\C(C)=C\[C@@H](C)[C@@H](O)[C@@H](C)C/C(C)=C/C=C/[C@H](OC)[C@@H]([C@@H](C)[C@@H](O)[C@H](C)[C@@]2(O)C[C@@H](O)[C@H](C)[C@@H](C(C)C)O2)OC1=O [Bafilomycin A1, reference compound]",–,–,–,–,–,"IC50 [1]: 0.1 nM; IC50 (HT29 cells [2]; [8]): 3 ± 2 nM; IC50 (HT29/Mit cells [3]; HT-29/Mit resistant line, 72 h treatment, read-out: Antiproliferative activity (IC50 ± S.D.) HT-29/Mit): 5 nM; IC50 (HepG2 cells): < 6 nM"
"N.N.[Cl][Pt][Cl] [Cisplatin, reference compound]",–,–,–,–,–,IC50 (HT29 cells [2]; [8]): 6800 nM; IC50 (HepG2 cells): > 25000 nM
"COC(=O)c1[nH]c2cc(OC)c(OC)cc2c1-c1ccc(OC)c(OC)c1 [Example 2, -3-(3,4-Dimethoxyphenyl)-5,6-dimethoxy-1H-indole-2-carboxylic acid methyl ester]",35200 ± 5200,15200 ± 300,–,–,–,IC50 (HepG2 cells; Homo sapiens): 25500 ± 4500 nM
"COC(=O)c1[nH]c2cc(OC)c(OC)cc2c1-c1ccccc1 [Example 3, 5,6-Dimethoxy-3-phenyl-1H-indole-2-carboxylic acid methyl ester]",37300,150,628,5000 to 42000,100 to 3000,–
"CCOC(=O)c1[nH]c2cc(OC)c(OC)cc2c1-c1ccccc1 [Example 4, 5,6-Dimethoxy-3-phenyl-1H-indole-2-carboxylic acid ethyl ester]",37300,< 100,350,5000 to 42000,100 to 3000,–
"COC(=O)c1c(-c2ccc(OC)cc2)c2cc(OC)c(OC)cc2n1CCO [Example 12, 1-(2-Hydroxyethyl)-5,6-dimethoxy-3-(4-methoxyphenyl)-1H-indole-2-carboxylic acid methyl ester]",4600,660 ± 300,247,5000 to 42000,100 to 3000,effect in combination with topotecan (HT29 cells [5]): synergistic effects; effect in combination with topotecan (HT29/Mit cells [6]): synergistic effects
"COc1ccc(-c2c(C#N)[nH]c3cc(OC)c(OC)cc23)cc1 [Example 17, 5,6-dimethoxy-3-(4-methoxyphenyl)-1H-indole-2-carbonitrile]",4900 ± 500,2500,273,–,–,–
"COc1ccc(-c2c(C#N)n(CCN(C)C)c3cc(OC)c(OC)cc23)cc1 [Example 18, 1-(2-Dimethylaminoethyl)-5,6-dimethoxy-3-(4-methoxyphenyl)-1H-indole-2-carbonitrile hydrochloride]",16700,150,567,5000 to 42000,100 to 3000,–
"COc1ccc(-c2c(-c3ncn[nH]3)[nH]c3cc(OC)c(OC)cc23)cc1 [Example 23, 5,6-Dimethoxy-3-(4-methoxyphenyl)-2-(2H-[1,2,4]triazol-3-yl)-1H-indole]",41900,2300,470,5000 to 42000,100 to 3000,effect in combination with topotecan (HT29 cells [5]): synergistic effects; effect in combination with topotecan (HT29/Mit cells [6]): synergistic effects
"COc1ccc(-c2c(-c3nnco3)[nH]c3cc(OC)c(OC)cc23)cc1 [Example 26, 5,6-Dimethoxy-3-(4-methoxyphenyl)-2-[1,3,4]oxadiazol-2-yl-1H-indole]",40300,2700,710,5000 to 42000,100 to 3000,effect in combination with topotecan (HT29 cells [5]): synergistic effects; effect in combination with topotecan (HT29/Mit cells [6]): synergistic effects
"COc1ccc(-c2c3n(c4cc(OC)c(OC)cc24)CCNC3=O)cc1 [Example 27, 7,8-Dimethoxy-10-(4-methoxyphenyl)-3,4-dihydro-2H-pyrazino[1,2-a]indol-1-one]",5200,2900,248,–,–,–
"COc1ccc(-c2c3n(c4cc(OC)c(OC)cc24)CCNC3)cc1 [Example 28, 7,8-Dimethoxy-10-(4-methoxyphenyl)-1,2,3,4-tetrahydro-pyrazino[1,2-a]indole hydrochloride]",37300,530,1270,5000 to 42000,100 to 3000,–
"CC[C@@]1(O)C(=O)OCc2c1cc1n(c2=O)Cc2cc3c(CN(C)C)c(O)ccc3nc2-1 [Topotecan, reference compound]",70 ± 10,50600,–,–,–,tumor growth inhibition ([7]; 1 mg/kg p.o.): 62%; tumor growth inhibition ([7]; 2 mg/kg p.o.): 80%
